Measurements from ChEMBL document CHEMBL1132671, “The synthesis of a new class of oxytocin antagonists” (Bioorg Med Chem Lett, 1999).
pKi: −log10 of the molar value. Active and inactive are the calls of the source. No cut-off for these calls is given here.

Tests used:
[1] = organism: Rattus norvegicus; assay: Dose inhibiting the response of a dose of oxytocin to half of the response in rat; format: functional; details: for ED50: Rattus norvegicus, read-out: ID50 (the source's name)
[2] = target: T1, Oxytocin receptor (Homo sapiens, UniProt P30559); assay: […] antagonistic activity against cloned human oxytocin receptor over-expressed in a stable HEK293 cell line; format: functional
T1 sequence (P30559 whole entry): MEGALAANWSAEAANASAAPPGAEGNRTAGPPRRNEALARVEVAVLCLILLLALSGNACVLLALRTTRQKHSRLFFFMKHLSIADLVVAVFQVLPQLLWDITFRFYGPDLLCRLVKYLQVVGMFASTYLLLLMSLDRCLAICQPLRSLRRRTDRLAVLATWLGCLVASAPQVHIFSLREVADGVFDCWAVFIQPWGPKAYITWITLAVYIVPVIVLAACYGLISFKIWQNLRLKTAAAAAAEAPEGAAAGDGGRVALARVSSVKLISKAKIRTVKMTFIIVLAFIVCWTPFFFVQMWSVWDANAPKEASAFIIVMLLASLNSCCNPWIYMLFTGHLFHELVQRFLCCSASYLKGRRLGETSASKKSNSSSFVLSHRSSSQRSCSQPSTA

[3] = organism: Rattus norvegicus; assay: Dose inhibiting the response of a dose of oxytocin to half of the response in rat;NA means no activity.; format: functional, organism-based

| Compound | ED50 [1] [µmol/kg] | ID50 [1] [nmol/kg] | pKi [2] | ID50 [3] |
| --- | --- | --- | --- | --- |
| CC[C@@H](C)[C@@H]1NC(=O)[C@H]([C@@H](C)CC)NC(=O)[C@@H](Cc2c[nH]c3ccccc23)NC(=O)CCSCC[C@@H](C(=O)N(C)[C@@H](CCCN)C(N)=O)NC(=O)[C@H](CC(N)=O)NC1=O | 0.0029 |  |  |  |
| CC[C@@H](C)[C@@H]1NC(=O)[C@H]([C@@H](C)CC)NC(=O)[C@@H](Cc2c[nH]c3ccccc23)NC(=O)CCCSC[C@H](CCCN)NC(=O)[C@H](CC(N)=O)NC1=O |  | 5.4 | 8.40 |  |
| CC[C@@H](C)[C@@H]1NC(=O)[C@H]([C@@H](C)CC)NC(=O)[C@@H](Cc2c[nH]c3ccccc23)NC(=O)CCSCC[C@@H](C(N)=O)NC(=O)[C@H](CC(N)=O)NC1=O | 0.048 |  |  |  |
| CC[C@@H](C)[C@@H]1NC(=O)[C@H]([C@@H](C)CC)NC(=O)[C@@H](Cc2c[nH]c3ccccc23)NC(=O)CCCSCC2CCCN2C(=O)[C@H](CC(N)=O)NC1=O (single isomer, unassigned) |  |  | 6.00 | inactive |
| CC[C@@H](C)[C@@H]1NC(=O)[C@H]([C@@H](C)CC)NC(=O)[C@@H](Cc2c[nH]c3ccccc23)NC(=O)CCCSCC(CCCCN)NC(=O)[C@H](CC(N)=O)NC1=O (single isomer, unassigned) | 0.017 |  | 8.55 |  |
| CC[C@@H](C)[C@@H]1NC(=O)[C@H]([C@@H](C)CC)NC(=O)[C@@H](Cc2c[nH]c3ccccc23)NC(=O)CCCSCC(CCCN)NC(=O)[C@H](CC(N)=O)NC1=O (single isomer, unassigned) |  | 32 | 7.59 |  |
